Test results from ChEMBL document CHEMBL1134950, “Retro-binding thrombin active site inhibitors: identification of an orally active inhibitor of thrombin catalytic activity” (Bioorg Med Chem Lett, 2002).

Tests used:
Coagulation factor X = Coagulation factor X (Homo sapiens, UniProt P00742); test: Concentration required to inhibit Coagulation factor X was determined
Mus musculus [1] = test: Efficacy required to inhibit thrombin was determined after 10 min of intravenous administration in the mouse thrombin challenge model; assay type: functional
Mus musculus [2] = test: Efficacy required to inhibit thrombin was determined after 1 hr of intravenous administration in the mouse thrombin challenge model; assay type: functional
Mus musculus [3] = test: Efficacy required to inhibit thrombin was determined after 1 hr of oral administration in the mouse thrombin challenge model; assay type: functional
Plasminogen = Plasminogen (Homo sapiens, UniProt P00747); test: Concentration required to inhibit Plasmin was determined
Prothrombin [4] = target: T1, Prothrombin (Homo sapiens, UniProt P00734); test: Concentration required to inhibit thrombin was determined
Serine protease 1 = target: T2, Serine protease 1 (Bos taurus, UniProt P00760); test: Concentration required to inhibit Trypsin was determined
T2 sequence (P00760 whole entry): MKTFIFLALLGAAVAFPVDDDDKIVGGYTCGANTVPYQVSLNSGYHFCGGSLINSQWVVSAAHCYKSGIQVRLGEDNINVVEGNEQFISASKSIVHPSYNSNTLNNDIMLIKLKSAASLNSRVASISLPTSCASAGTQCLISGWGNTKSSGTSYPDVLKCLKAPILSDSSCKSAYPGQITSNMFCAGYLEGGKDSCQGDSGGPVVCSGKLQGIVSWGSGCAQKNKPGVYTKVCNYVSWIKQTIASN

[5] = target: T3, Tissue-type plasminogen activator (Homo sapiens, UniProt P00750); test: Concentration required to inhibit tissue-type plasminogen activator (t-PA) was determined
Prothrombin [6] = target: T1, Prothrombin; test: Concentration required to inhibit Human alpha-thrombin was determined
Prothrombin [7] = target: T1, Prothrombin; test: Inhibitory constant of thrombin catalytic activity was determined
[8] = target: T3, Tissue-type plasminogen activator; test: Concentration required to inhibit Tissue-type plasminogen activator (t-PA) was determined

T3 sequence (P00750 whole entry): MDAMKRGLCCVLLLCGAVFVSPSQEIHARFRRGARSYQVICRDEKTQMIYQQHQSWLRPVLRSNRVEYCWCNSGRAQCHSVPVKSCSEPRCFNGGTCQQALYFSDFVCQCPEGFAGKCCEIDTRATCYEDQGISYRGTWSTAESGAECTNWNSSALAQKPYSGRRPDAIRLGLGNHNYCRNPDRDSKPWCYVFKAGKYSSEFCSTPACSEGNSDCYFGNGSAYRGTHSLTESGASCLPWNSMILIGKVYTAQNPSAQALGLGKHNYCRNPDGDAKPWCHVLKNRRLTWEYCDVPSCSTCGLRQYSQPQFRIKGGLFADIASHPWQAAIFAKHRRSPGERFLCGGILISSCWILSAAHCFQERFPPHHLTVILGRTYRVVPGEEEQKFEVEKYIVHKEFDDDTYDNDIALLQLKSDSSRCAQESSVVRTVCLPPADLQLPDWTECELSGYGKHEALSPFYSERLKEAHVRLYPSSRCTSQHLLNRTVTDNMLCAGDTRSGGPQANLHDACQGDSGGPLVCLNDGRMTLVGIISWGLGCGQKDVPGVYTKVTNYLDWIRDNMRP
Sequence of Plasminogen (P00747 97-580 limits assumed): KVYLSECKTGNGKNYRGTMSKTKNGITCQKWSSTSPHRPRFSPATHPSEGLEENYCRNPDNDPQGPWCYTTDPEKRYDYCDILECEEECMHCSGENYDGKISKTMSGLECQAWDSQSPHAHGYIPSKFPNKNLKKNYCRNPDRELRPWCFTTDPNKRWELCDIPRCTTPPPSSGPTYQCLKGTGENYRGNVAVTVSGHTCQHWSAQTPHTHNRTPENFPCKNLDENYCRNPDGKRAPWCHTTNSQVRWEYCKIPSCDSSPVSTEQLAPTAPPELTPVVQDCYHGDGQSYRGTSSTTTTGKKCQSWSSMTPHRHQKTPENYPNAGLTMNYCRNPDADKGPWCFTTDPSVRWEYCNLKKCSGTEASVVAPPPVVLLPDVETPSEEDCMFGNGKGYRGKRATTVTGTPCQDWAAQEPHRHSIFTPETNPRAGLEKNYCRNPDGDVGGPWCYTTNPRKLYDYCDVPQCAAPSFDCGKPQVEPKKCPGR
Sequence of Plasminogen (P00747 581-810 limits assumed): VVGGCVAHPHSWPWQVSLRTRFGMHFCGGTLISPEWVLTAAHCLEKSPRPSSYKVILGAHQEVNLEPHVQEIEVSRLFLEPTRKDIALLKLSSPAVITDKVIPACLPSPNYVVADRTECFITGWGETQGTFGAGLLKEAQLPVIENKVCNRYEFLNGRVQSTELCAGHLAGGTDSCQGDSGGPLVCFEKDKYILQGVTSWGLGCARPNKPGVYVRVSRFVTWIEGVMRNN
Sequence of Coagulation factor X (P00742 41-179 limits assumed): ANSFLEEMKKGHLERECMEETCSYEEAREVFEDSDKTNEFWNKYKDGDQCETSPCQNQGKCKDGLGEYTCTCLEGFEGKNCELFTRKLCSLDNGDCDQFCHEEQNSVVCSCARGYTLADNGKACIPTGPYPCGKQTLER
Sequence of Coagulation factor X (P00742 235-488 limits assumed): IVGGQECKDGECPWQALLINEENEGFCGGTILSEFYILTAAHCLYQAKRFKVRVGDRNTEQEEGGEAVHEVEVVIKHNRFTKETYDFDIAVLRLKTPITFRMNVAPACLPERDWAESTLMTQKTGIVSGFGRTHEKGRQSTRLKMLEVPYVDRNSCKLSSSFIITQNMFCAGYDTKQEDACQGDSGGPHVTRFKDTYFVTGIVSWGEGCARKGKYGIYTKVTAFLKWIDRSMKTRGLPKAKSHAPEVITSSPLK

**Q.** CC(O)[C@@H](C(=O)N[C@H](C)c1ccccc1)N(C)C(=O)[C@H](Cc1ccc([N+](=O)[O-])cc1)NC(=O)CCCN=C(N)N (some centres not stated) was tested. Which IC50 (Coagulation factor X) did it give?
**A.** The IC50 was 4600 nM.

**Q.** And the ED50 (Mus musculus [1])?
**A.** Its ED50 is 0.21 mg/kg.

**Q.** And the ED50 (Mus musculus [2])?
**A.** The ED50 was 2.2 mg/kg.

**Q.** And the ED50 (Mus musculus [3])?
**A.** Its ED50 is 23 mg/kg.

**Q.** What about the IC50 (Plasminogen) of the same compound?
**A.** The IC50 was 230 nM.

**Q.** What about the IC50 (Prothrombin [4]) of the same compound?
**A.** The IC50 was 8 nM.

**Q.** And the IC50 (Serine protease 1)?
**A.** Its IC50 is 8 nM.

**Q.** And the IC50 [5]?
**A.** The IC50 was 700 nM.

**Q.** Which IC50 (Prothrombin [6]) does the source give for CC(O)[C@H](NC(=O)[C@H](Cc1ccc([N+](=O)[O-])cc1)NC(=O)CCCN=C(N)N)C(=O)N[C@H](CO)c1ccccc1 (some centres not stated) here?
**A.** The IC50 was 19 nM.

**Q.** Which IC50 (Prothrombin [6]) does the source give for CC(O)[C@H](NC(=O)[C@H](Cc1ccc([N+](=O)[O-])cc1)NC(=O)CCCN=C(N)N)C(N)=O (some centres not stated) here?
**A.** Its IC50 is 230000 nM.

**Q.** For COC(=O)[C@@H](NC(=O)[C@@H](NC(=O)[C@H](Cc1ccc([N+](=O)[O-])cc1)NC(=O)CCCN=C(N)N)C(C)O)C1CCCCC1 (some centres not stated), which IC50 (Prothrombin [6]) is on record?
**A.** The IC50 was 16 nM.

**Q.** With CC(O)[C@H](NC(=O)[C@H](Cc1ccc([N+](=O)[O-])cc1)NC(=O)CCCN=C(N)N)C(=O)N[C@@H](C)c1ccccc1 (some centres not stated) as the compound, how does the IC50 (Prothrombin [6]) read?
**A.** Its IC50 is 310 nM.

**Q.** CC(O)[C@H](NC(=O)[C@H](Cc1ccc([N+](=O)[O-])cc1)NC(=O)CCCN=C(N)N)C(=O)N[C@H](C)c1ccccc1 (some centres not stated) was tested. Which IC50 (Prothrombin [6]) did it give?
**A.** The IC50 was 72 nM.

**Q.** Which IC50 (Prothrombin [6]) does the source give for COC(=O)[C@@H](NC(=O)[C@@H](NC(=O)[C@H](Cc1ccc([N+](=O)[O-])cc1)NC(=O)CCCN=C(N)N)C(C)O)c1ccccc1 (some centres not stated) here?
**A.** Its IC50 is 8.3 nM.

**Q.** How did the IC50 (Prothrombin [6]) turn out when CC(O)[C@H](NC(=O)[C@H](Cc1ccc([N+](=O)[O-])cc1)NC(=O)CCCN=C(N)N)C(=O)N[C@@H](C)Cc1ccccc1 (some centres not stated) was run?
**A.** The IC50 was 260 nM.

**Q.** How did the IC50 (Prothrombin [6]) turn out when CC(O)[C@H](NC(=O)[C@H](Cc1ccc([N+](=O)[O-])cc1)NC(=O)CCCN=C(N)N)C(=O)N[C@H](C(=O)O)C1CCCCC1 (some centres not stated) was run?
**A.** The IC50 was 55 nM.

**Q.** How did the IC50 (Prothrombin [6]) turn out when CC(O)[C@H](NC(=O)[C@H](Cc1ccc([N+](=O)[O-])cc1)NC(=O)CCCN=C(N)N)C(=O)N[C@H](CO)C1CCCCC1 (some centres not stated) was run?
**A.** The IC50 was 19 nM.

**Q.** CC(O)[C@H](NC(=O)[C@H](Cc1ccc([N+](=O)[O-])cc1)NC(=O)CCCN=C(N)N)C(=O)N[C@H](C)Cc1ccccc1 (some centres not stated) was tested. Which IC50 (Prothrombin [6]) did it give?
**A.** Its IC50 is 43 nM.

**Q.** For CN[C@H](Cc1ccccc1)C(=O)N1CCC[C@H]1C(=O)N[C@H](C=O)CCCNC(=N)N [EFEGATRAN], which IC50 (Coagulation factor X) is on record?
**A.** Its IC50 is 16000 nM.

**Q.** And the ED50 (Mus musculus [1])?
**A.** The ED50 was 0.04 mg/kg.

**Q.** What about the ED50 (Mus musculus [2]) of the same compound?
**A.** The ED50 was 3 mg/kg.

**Q.** What about the ED50 (Mus musculus [3]) of the same compound?
**A.** The ED50 was 44 mg/kg.

**Q.** And the IC50 (Plasminogen)?
**A.** The IC50 was 25000 nM.

**Q.** What about the Ki (Prothrombin [7]) of the same compound?
**A.** Its Ki is 7 nM.

**Q.** What about the IC50 [8] of the same compound?
**A.** The IC50 was 34000 nM.

**Q.** What about the IC50 (Prothrombin [4]) of the same compound?
**A.** Its IC50 is 30 nM.

**Q.** And the IC50 (Serine protease 1)?
**A.** Its IC50 is 45 nM.
